According to patent publication US20230087994A1, “TARGETED BIFUNCTIONAL DEGRADERS” (YALE UNIVERSITY, priority 2019, published 2023):

What was measured:
[1] = target: human IgG (fluorescently labeled) (human); test: cell-based or functional assay
HepG2 cells [2] = test: DNP-AF3-mediated endocytosis of fluorescently labeled α-DNP antibody by HepG2 cells (flow cytometry); format: cell-based, human; settings: 40 nM DNP-AF3, 100 nM antibody; FIG. 106
Procedure: The intracellular fluorescence of cells that were incubated at 37° C. with both fluorescently labeled α-DNP antibody and DNP-AF3 for a given amount of time was examined. Cells were then washed, removed from the plate with trypsin, and subjected to flow cytometry. Trypsin treatment is expected to cleave ASGPR and surface-bound α-DNP antibody from cells, and therefore the cellular fluorescence observed in these assays is expected to arise only from internalized antibodies.
It was then determined if reagents which inhibit ternary complex formation inhibit endocytosis mediated by DNP-AF3. In order to account for non-specific antibody association with cells, the mean fluorescence intensity of an aliquot of cells which had been treated with α-DNP antibody but not DNP-AF3 was subtracted from each reading. […] In the presence of 2.38 μM (0.1 mg/mL) ASOR, the cell population fluorescence was decreased to 4.66e5 (FIG. 105); at this ASOR concentration, ternary complex formation is decreased by approximately 70%. Because ternary complex is not inhibited completely at this concentration of ASOR, it is expected that productive endocytic events are still taking place.

HepG2 cells [3] = test: MIF-GN3-mediated endocytosis of fluorescently labeled human MIF by HepG2 cells; settings: for effect of endocytic pathway inhibitors on MIF-GN3-mediated MIF endocytosis: 100 nM MIF, 200 nM MIF-GN3, FIG. 132
Procedure: Human MIF protein was fluorescently labeled with Alexa 488 NHS ester, then incubated with HepG2 cells in the presence of varying levels of MIF-GN3.
Next, inhibitors of various endocytic pathways were utilized to determine if MIF-GN3 mediates MIF endocytosis in a manner consistent with ASGPR (FIG. 132).

[4] = target: T1, asialoglycoprotein receptor (ASGPR) on the surface of immortalized human hepatocyte HepG2 cells (human) (UniProt P07306); test: competition, flow cytometry: inhibition of DNP-GN3-mediated association of fluorescent α-DNP antibody with HepG2 cells in suspension (ASGPR on cells)
T1 sequence (looked up) 1: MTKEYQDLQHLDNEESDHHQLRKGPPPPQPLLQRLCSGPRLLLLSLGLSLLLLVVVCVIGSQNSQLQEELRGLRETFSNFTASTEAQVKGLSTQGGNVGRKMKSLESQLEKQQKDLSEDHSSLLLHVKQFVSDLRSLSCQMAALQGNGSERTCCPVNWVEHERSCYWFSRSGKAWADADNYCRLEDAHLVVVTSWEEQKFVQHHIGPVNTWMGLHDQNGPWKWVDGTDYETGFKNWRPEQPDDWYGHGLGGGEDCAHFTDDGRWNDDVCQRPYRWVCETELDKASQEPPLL
T1 sequence (looked up) 2: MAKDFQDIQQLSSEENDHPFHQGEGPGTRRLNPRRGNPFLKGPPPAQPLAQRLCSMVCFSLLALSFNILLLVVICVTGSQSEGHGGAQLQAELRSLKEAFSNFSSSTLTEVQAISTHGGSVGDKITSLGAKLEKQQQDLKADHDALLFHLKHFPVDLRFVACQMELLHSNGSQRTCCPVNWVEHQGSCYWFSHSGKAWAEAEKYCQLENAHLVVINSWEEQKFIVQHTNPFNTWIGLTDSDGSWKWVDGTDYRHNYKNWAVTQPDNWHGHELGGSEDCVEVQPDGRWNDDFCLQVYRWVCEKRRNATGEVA

[5] = target: T1, asialoglycoprotein receptor (ASGPR) on the surface of immortalized human hepatocyte HepG2 cells (human); test: cell-based or functional assay
[6] = target: T1, asialoglycoprotein receptor (ASGPR) on the surface of immortalized human hepatocyte HepG2 cells (human); test: competition, flow cytometry on HepG2 cells against 40 nM DNP-AF3 and 100 nM α-DNP antibody
HepG2 cells [7] = test: DNP-GN3-mediated endocytosis of fluorescently labeled α-DNP antibody by adherent HepG2 cells; format: cell-based, human; settings: DNP-GN3-mediated uptake; FIG. 89
Procedure: It was next explored whether DNP-GN3 mediates the endocytosis of fluorescently labeled α-DNP antibody.
To explore the cellular mechanism of antibody uptake, cells were treated with chemical inhibitors of several endocytic pathways (FIG. 89).

human MIF [8] = target: T2, human MIF (Homo sapiens, UniProt P14174); test: Depletion of human MIF from cell culture supernatant (sandwich ELISA); format: cell-based; parameters: host or cells: exogenous protein added to cell culture; settings: 24 hours; FIG. 128B
T2 sequence (P14174 2-115 limits assumed): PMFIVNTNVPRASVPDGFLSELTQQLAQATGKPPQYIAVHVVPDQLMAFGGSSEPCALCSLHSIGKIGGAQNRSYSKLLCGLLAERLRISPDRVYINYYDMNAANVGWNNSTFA
Procedure: The ability of bifunctional MIF-binding molecules to mediate the depletion of human MIF from cell culture was investigated. In these assays, human MIF was present at a concentration of 100 nM, and a sandwich ELISA assay was utilized to measure the concentration of human MIF remaining in the cell culture supernatant. The closely related bifunctional molecules MIF-GN3, MIF-PEG2-GN3, and MIF-PEG4-GN3 were used, as well as the structurally dissimilar molecule MIF-NVS-PEG3-GN3. […] Based on the ease of its synthesis and its efficacy in this experiment, MIF-GN3 was utilized for further studies. It was next investigated whether the MIF inhibitor 3w mediates MIF depletion from cell culture supernatant. […] When cells were treated with 3w, no depletion of exogenous MIF protein was observed after 24 hours (FIG. 128B).

PC3 cells = test: Human prostate cancer PC3 tumor growth in mice; format: in vivo; settings: control and comparator arms; FIG. 138
Procedure: The ability of MIF-GN3 to mediate the depletion of MIF in a therapeutically relevant disease model was investigated. […] An experiment was conducted to determine whether the bifunctional molecule MIF-GN3 can deplete sufficient human MIF from serum to slow PC3 tumor growth. Mice were injected with an aliquot of PC3 cells, and the size of the resultant tumors as well as the levels of human MIF in serum were monitored over five weeks. […] Five weeks after the initial PC3 cell injection, the first of the mice reached maximal tumor size ([…]) and was sacrificed (FIG. 138). […] The decrease in human MIF levels mediated by MIF-GN3 is consistent with a mechanism of action in which MIF-GN3 mediates the depletion and degradation of circulating MIF protein. While the α-MIF antibody would not necessarily be expected to decrease the levels of human MIF, it is possible that the antibody mediates MIF neutralization in a manner which masks its signal as determined by ELISA. Alternatively, the α-MIF antibody may mediate depletion or degradation of huMIF by some endocytic mechanism. Another possible explanation is that the α-MIF antibody decrease serum levels of active human MIF to such an extent at early time points that PC3 cells proliferate much more slowly, and therefore fewer cells are actively secreting human MIF.
Mice were sacrificed when their tumor volumes reached 1000 mm^3. […] At this same time point, less than 25% of the mice in any other arm had survived.

human MIF [9] = target: T2, human MIF; test: Depletion of injected recombinant human MIF from serum in mice; format: in vivo; parameters: injected into mice; settings: control molecules; FIG. 136
Procedure: In vivo human MIF depletion experiments were undertaken to determine whether MIF-GN3 can mediate the depletion of injected recombinant human MIF from serum in mice. Mice were injected with five μg of the human MIF protein. In this experiment, one group of mice was also injected with a single 10 mpk dose of MIF-GN3 along with human MIF protein. It was observed that after four hours, the average level of human MIF in serum in the PBS-treated mice was 1.76 ng/mL (FIG. 134). In mice treated with 10 mpk MIF-GN3, however, the concentration of human MIF in serum was 0.68 ng/mL. One day after the initial injection, human MIF levels had reached background levels for both conditions. […] It was hypothesized that, due to the short half-life of human MIF in serum, investigating human MIF levels at earlier time points may be more informative.
Next, an experiment was performed to determine whether MIF-GN3 could enhance MIF clearance at time points earlier than four hours. Mice were coinjected with recombinant human MIF and 10 mpk MIF-GN3 via either i.p. or i.v. routes. For the PBS control arms, human MIF was injected with PBS. It was observed that in the absence of MIF-GN3, there was a spike in huMIF levels in circulation after 30 minutes (FIG. 135). In the presence of MIF-GN3, however, levels of MIF protein remained low at 30 minutes and no spike in its concentration was observed. By two hours, the levels of human MIF in circulation decreased to background levels. […] In a further experiment, whether an inhibitor of the MIF protein (3w) is able to mediate the protein's depletion from serum was determined. A bifunctional molecule that mediates the depletion of α-DNP antibody from serum was also assayed as a negative control. Neither of these molecules was expected to mediate the formation of a ternary complex between human MIF protein and ASGPR.
In order to confirm that mice injected with one or ten mpk MIF-GN3 had received the injection, and that the observed stability of MIF concentrations in MIF-GN3 treated mice was not the result of injection error, 200 μg of α-DNP antibody was coinjected with the MIF protein in this experiment. […] An investigation of the ability of MIF-GN3 to mediate the depletion of endogenous mouse MIF in vivo was next undertaken. Mice were treated with either PBS or 10 mpk of MIF-GN3. […] One possible explanation for this finding is that MIF protein may be synthesized rapidly, and any increase in degradation mediated by MIF-GN3 may not be of a large enough magnitude to impact the protein's level in serum.

## FcIII-BCN-GN3 (peptide)
[1]
  endocytosis of human IgG by HepG2 cells over time and concentration: most effective FcIII-BCN-GN3 concentration: 1 µM

## COc1ccc2c(c1)c(CC(=O)O)c(C)n2C(=O)c1ccc(Cl)cc1 [indomethacin, Indomethacin]
HepG2 cells [2]
  effect of endocytic pathway inhibitors on fluorescence of the cell population: did not significantly decrease
HepG2 cells [3]
  effect of endocytic pathway inhibitors on MIF-GN3-mediated MIF endocytosis: did not decrease

## asialoorosomucoid (ligand)
[4]
  IC50: 17 nM
[5]
  mean fluorescence of the HepG2 cell population (DNP-AF3-mediated α-DNP antibody endocytosis) in the presence of 2.38 µM (0.1 mg/mL) ASOR; approximately 1.31e6 without inhibitor (mean fluorescence): 466000
[6]
  percent decrease of ternary complex formation at 2.38 µM (0.1 mg/mL) ASOR: 70%

## N=C(N)NC(=O)c1nc(Cl)c(N)nc1N [amiloride, Amiloride]
HepG2 cells [2]
  effect of endocytic pathway inhibitors on fluorescence of the cell population: A decrease in cellular fluorescence
HepG2 cells [3]
  effect of endocytic pathway inhibitors on MIF-GN3-mediated MIF endocytosis: did not impact cellular fluorescence significantly
HepG2 cells [7]
  effect of endocytic pathway inhibitors on intracellular fluorescence: did not significantly decrease

## O=c1c(-c2ccc(O)cc2)coc2cc(O)cc(O)c12 [genistein, Genistein]
HepG2 cells [2]
  effect of endocytic pathway inhibitors on fluorescence of the cell population: did not significantly decrease
HepG2 cells [3]; HepG2 cells with MIF and MIF-GN3
  toxicity to cells: toxic to cells

## C=C1[C@@H](C)[C@H]2[C@H](Cc3ccccc3)NC(=O)[C@]23[C@H](OC(C)=O)/C=C/[C@@](C)(O)C(=O)[C@@H](C)C/C=C/[C@H]3[C@@H]1O [cytochalisin D (CytD)]
HepG2 cells [2]
  effect of endocytic pathway inhibitors on fluorescence of the cell population: non-significant decrease

## Oc1ccc(-n2cc(-c3ccc4cc(OCCOCCN5CCOCC5)ccc4n3)nn2)cc1F [Compound 3w, reference compound]
Human MIF [8]
  depletion of exogenous MIF protein from supernatant: no depletion
PC3 cells
  PC3 tumor growth: not found to decrease tumor growth
Human MIF [9]
  human MIF concentration in serum compared to the PBS control: no significant decreases

## C[C@@H]1[C@H](O)[C@@H](C)/C=C/C=C/CC/C=C/C=C/C=C/C=C/C(O[C@H]2O[C@H](C)[C@@H](O)[C@H](N)[C@@H]2O)CC2O[C@](O)(CC(O)C(O)CCC(O)CC(O)CC(O)CC(=O)O[C@H]1C)CC(O)C2C(=O)O (stereo partly shown) [nystatin, Nystatin]
HepG2 cells [2]
  effect of endocytic pathway inhibitors on fluorescence of the cell population: did not significantly decrease
HepG2 cells [3]
  effect of endocytic pathway inhibitors on MIF-GN3-mediated MIF endocytosis: did not decrease
HepG2 cells [7]
  effect of endocytic pathway inhibitors on intracellular fluorescence: did not significantly decrease

## OC[C@H]1O[C@@](CO)(O[C@H]2O[C@H](CO)[C@@H](O)[C@H](O)[C@H]2O)[C@@H](O)[C@@H]1O [sucrose]
HepG2 cells [3]
  effect of endocytic pathway inhibitors on MIF-GN3-mediated MIF endocytosis: near background levels
HepG2 cells [7]
  effect of endocytic pathway inhibitors on intracellular fluorescence: significantly decreased

## FcIII-GN3 (oxidized cyclized form) (peptide)
[1]
  endocytosis of Alexa 488-labeled human IgG by HepG2 cells (flow cytometry, six hours): FcIII-GN3 concentration giving maximal uptake: 200 nM

B1: asialofetuin (ligand, UniProt P12763 19-359, looked up, species assumed)
Alpha-2-HS-glycoprotein: IPLDPVAGYKEPACDDPDTEQAALAAVDYINKHLPRGYKHTLNQIDSVKVWPRRPTGEVYDIEIDTLETTCHVLDPTPLANCSVRQQTQHAVEGDCDIHVLKQDGQFSVLFTKCDSSPDSAEDVRKLCPDCPLLAPLNDSRVVHAVEVALATFNAESNGSYLQLVEISRAQFVPLPVSVSVEFAVAATDCIAKEVVDPTKCNLLAEKQYGFCKGSVIQKALGGEDVRVTCTLFQTQPVIPQPQPDGAEAEAPSAVPDAAGPTPSAAGPPVASVVVGPSVVAVPLPLHRAHYDLRHTFSGVASVESSSGEAFHVGKTPIVGQPSIPGGPVRLCPGRIRYFKI
modifications: desialylated
[4]
  IC50: 65 nM
